According to patent US20160030367A1, “Methods and Compositions for Preventing Metastasis and for Improving the Survival Time” (INSERM (INSTITUT NATIONAL DE LA SANTÉ ET DE LA RECHERCHE …, priority 2013, published 2016):
Starred links: 1 amine or outer side, 2 acyl side, 3 side chain; linkers in the order of their positions; H or OH if unused. Positions of bridges follow the written chain, without caps; N, C: chain ends. Non-standard residues stand in square brackets, D forms with d. Residues, ends and D or L forms follow the SMILES beside them. Chains are numbered I, II in the order given. Actinocin(9to1) = Cc1c2oc3c(C)ccc(C(=O)[*:1])c3nc-2c(C(=O)[*:2])c(N)c1=O; NMeV = CN[C@H](C(=O)O)C(C)C; Sar = CNCC(=O)O

How the values were obtained:
1205Lu melanoma cells [1] = experiment: Invasion assay in Matrigel-coated Boyden chambers; format: cell-based, human; conditions: for cell invasion, dose dependence: indicated concentrations
Description: (§1) Boyden chambers (8.0-μm pores, Transwell, Corning, Inc.) were coated with 1 mg/ml Matrigel® (BD Biosciences) and were placed into 24-well chambers containing medium supplemented with 10% FCS. The cells were resuspended in FCS-starved medium, loaded into the top chamber. […] Results represent the average of triplicate samples from three independent experiments.

A375 melanoma cells [2] = experiment: Invasion assay in Matrigel-coated Boyden chambers; format: cell-based; conditions: 24 h; for cell invasion, dose dependence: indicated concentrations
Description: as §1

p53 = experiment: p53-dependent luciferase reporter assay (PG13-Luc) in melanoma cells; format: cell-based; conditions: positive control
Description: Melanoma cells were seeded in 24-well dishes, and transient transfections were performed the following day using 2 μl Lipofectamine (Gibco-BRL, Eragny, France) and 0.3 mg of PG13-Luc, a p53-dependent firefly luciferase reporter gene in a 200-ml final volume. pCMVβGal plasmid was cotransfected to control the variability of transfection efficiency in the reporter assays. […] At 24 hours after stimulation, cells were harvested in 50 μl of lysis buffer and soluble extracts assayed for luciferase and β-galactosidase activities. All transfections were repeated several times using different plasmid preparations. Luciferase assays were carried out exactly as described (17).

1205Lu melanoma cells [3] = experiment: Migration assay in Boyden chambers; format: cell-based, human; conditions: after 24 hours
Description: as §1, with “Inc.)” for “Inc.) were coated with 1 mg/ml Matrigel® (BD Biosciences) and”

A375 melanoma cells [4] = experiment: Migration assay in Boyden chambers; format: cell-based; conditions: after 24 hours
Description: as §1, with “Inc.)” for “Inc.) were coated with 1 mg/ml Matrigel® (BD Biosciences) and”

1205Lu melanoma cells [5] = experiment: Wound healing assay; format: cell-based, human
A375 melanoma cells [6] = experiment: Wound healing assay; format: cell-based
[7] = system: melanoma cells freshly isolated from patients; experiment: Invasion assay in Matrigel-coated Boyden chambers; format: cell-based, human; conditions: 10 mM, 24 h
Description: Different cancer cell lines were purchased from American Tissue Culture Collection (Molsheim, France). Cells were grown in RPMI 1640 (A375, WM9, SKMel28 and LNCap) or in DMEM medium (1205Lu, Mel501, Mewo and PC3) supplemented with 10% FCS and penicillin/streptomycin (100 U/ml/[…]) at 37° C. and 5% CO2. Patient melanoma cells were prepared as described (13). Briefly, biopsy was dissected and digested for 1-2 h with collagenase A (0.33 U/ml), dispase (0.85 U/ml) and Dnase I (144 U/ml) with rapid shaking at 37° C. Large debris were removed by filtration through a […] cell strainer. Viable cells were obtained by Ficoll gradient centrifugation.
Boyden chambers (8.0-μm pores, Transwell, Corning, Inc.) were coated with 1 mg/ml Matrigel® (BD Biosciences) and were placed into 24-well chambers containing medium supplemented with 10% FCS. The cells were resuspended in FCS-starved medium, loaded into the top chamber. 5 h later, cells adherent to the underside of the filters were fixed with 4% PFA and stained with 0.4% crystal violet, and five random fields at 20× magnification were counted. Results represent the average of triplicate samples from three independent experiments.

WM9 melanoma cells = experiment: Three-dimensional spheroid invasion into collagen; format: cell-based
Description: Melanoma spheroids were prepared using the liquid overlay method. Briefly, 500 μL of melanoma cells (20000/ml) were added to a 24-well plate coated with 1.5% agar (Difco, Sparks, Md.). Plates were left to incubate for 72 hours, by which time cells had organized into three-dimensional spheroids. Spheroids were then harvested using a P1000 pipette. The medium was removed and the spheroids were implanted into a gel of bovine collagen I containing MEM (Invitrogen). Normal melanoma medium was overlaid on top of the solidified collagen. After different time, pictures of the invading spheroids were taken using a Zeiss microscope.

[8] = system: Fibronectin, N-Cadherin, Vimentin, Sparc, Slug and Snail in 1205Lu melanoma cells; experiment: Western blot of EMT markers; format: cell-based, human
Description: (§2) Protein were extracted in buffer containing TRIS-HCl pH7.5 50 mM, NaCl 15 mM, Triton X-100 1% and protease and phosphatase inhibitor 1X. Briefly, cell lysates (30 μg) were separated by SDS-PAGE, transferred onto a PVDF membrane (Millipore, Molsheim, France) and then exposed to the appropriate antibodies. Proteins were visualized with the ECL system from Amersham (Arlington, Heights, Ill., USA). The western blots shown are representative of at least 3 independent experiments.

total MMP activity = experiment: Matrix metalloproteinase (MMP) activity measurement, fluorogenic substrate, culture media of 1205Lu cells; format: cell-based, human; conditions: 10 mM, 24 h
Description: The culture media from stimulated cells were harvested and incubated in a 96-well plate with 0.2 mM of NH2-RA-Dpa-LGLP-AMC as a substrate for various times at 37° C. MMP activity was measured in quadruplicate by quantifying the emission at 460 nm (excitation at 390 nm) in the presence or absence of 10 μM CP471474. The enzyme activities were expressed in arbitrary units per mg of protein.

MMP-2 = experiment: Type I collagen substrate zymography, 1205Lu culture media; format: cell-based, human
Description: (§3) The culture media from 1205Lu melanoma cells was concentrated in centrifugal filter unit and loaded on 10% SDS-polyacrylamide gels containing 1 mg/ml type I collagen (BD Biosciences). To estimated the protein concentration, 1205Lu melanoma cells were lysed in a buffer containing 1% Triton X-100, 150 mM NaCl, and 20 mM Tris, pH 7.4, supplemented with a protease inhibitor mixture (Complete EDTA-free, Roche Molecular Biochemicals) at 4° C. under agitation for 30 min. Lysates were clarified by brief spinning, and protein concentration was evaluated by bicinchoninic acid technique (BCA protein assay kit, Pierce). Following electrophoresis, proteins were renatured by incubating gels in 2.5% Triton X-100 for 2 h at 37° C. Gels were then washed three times in distilled water and incubated in substrate buffer (50 mM Tris, pH 7.4, and 1 mM CaCl2) at 37° C. for 24 h with gentle shaking Gels were stained with 0.1% Coomassie Blue R-250 (Sigma) and destained in 7% acetic acid. Enzymatic activities appear as cleared bands in a dark background.

MMP-9 = experiment: as above; format: cell-based, human
Description: as §3

AMPK = experiment: Western blot in 1205Lu cells infected with Ad AMPK-DN or Ad control; format: cell-based, human
Description: Adenoviruses encoding a dominant negative form (Ad AMPK-DN) of subunits α1 and α2 of AMPK were a generous gift of Dr. Foufelle (INSERM, UMR-S 872, Paris, France). An adenovirus of which the expression cassette contains the major late promoter with no exogenous gene was used as control (Ad control). Adenoviruses were propagated in human embryonic kidney 293 cells and stored at −80° C.
as §2

[9] = system: 1205Lu melanoma cells expressing luciferase; experiment: Lung metastasis model, bioluminescence, nude mice; format: in vivo
Description: 1205Lu cells stably transfected with a vector encoding luciferase cells come from the team of Dr. Tartare-Deckert. A total of 1×10^6/150 μl PBS 1205Lu-Luc cells were injected via the tail vein of nude mice (Harlan Laboratories). […] To perform pulmonary extravasation analysis, 1.5×10^6 1205Lu cells were labelled for 1 h with CellTracker™ Green (Invitrogen) and injected via the tail vein of nude mice.

[10] = system: Slug and N-cadherin in Mewo cells; experiment: Western blot in Mewo cells infected with Adp53; format: cell-based; conditions: re-expression of WT p53 by adenovirus infection
Description: as §2

melanomas cells = conditions: long term treatment of 96 hours; cited from earlier work
1205Lu melanoma cells [11] = experiment: Pulmonary extravasation model in nude mice; conditions: cells treated 24 h with 10 mM before tail vein injection; lungs after 24 h
[12] = cells transfected with siRNA against p53

In the case of `NC(=O)c1ncn([C@@H]2O[C@H](CO)[C@@H](O)[C@H]2O)c1N` [AICAR, 5-aminoimidazole-4-carboxamide-1-β-D-ribofuranoside], the “cell invasion, dose dependence” value (1205Lu melanoma cells [1]; 24 h) is reported as “decreases cell invasion in dose dependent manner” and the “cell invasion, dose dependence” value (A375 melanoma cells [2]) is reported as “decreases cell invasion in dose dependent manner”.
In the case of `[H]/N=C(/N)N/C(=N/[H])NCCc1ccccc1` [phenformin], the “cell invasion, dose dependence” value (1205Lu melanoma cells [1]; 24 h) is reported as “decreases cell invasion in dose dependent manner” and the “cell invasion, dose dependence” value (A375 melanoma cells [2]) is reported as “decreases cell invasion in dose dependent manner”.
For `Cc1c2oc3c(C)ccc(C(=O)N[C@@H]4C(=O)N[C@H](C(C)C)C(=O)N5CCC[C@H]5C(=O)N(C)CC(=O)N(C)[C@@H](C(C)C)C(=O)O[C@@H]4C)c3nc-2c(C(=O)N[C@@H]2C(=O)N[C@H](C(C)C)C(=O)N3CCC[C@H]3C(=O)N(C)CC(=O)N(C)[C@@H](C(C)C)C(=O)O[C@@H]2C)c(N)c1=O` [Actinomycin D] (I: T[dV]P[Sar][NMeV] / II: T[dV]P[Sar][NMeV]; ester I:1-I:C, II:1-II:C; linker I:N-II:N via Actinocin(9to1)), the “increase of p53 promoter activity” value (p53) was “comparable to metformin 10 mM”.
In the case of `Oc1ccc(/C=C/c2cc(O)cc(O)c2)cc1` [resveratrol, 3,5,4′-trihydroxy-trans-stilbene], the “cell invasion, dose dependence” value (1205Lu melanoma cells [1]; 24 h) is reported as “decreases cell invasion in dose dependent manner” and the “cell invasion, dose dependence” value (A375 melanoma cells [2]) is reported as “decreases cell invasion in dose dependent manner”.
In the case of `CN(C)C(=N)N=C(N)N` [metformin], the cell migration (1205Lu melanoma cells [3]) is reported as “do not inhibit migration”, the cell migration (A375 melanoma cells [4]) is reported as “do not inhibit migration” and the “cell migration (wound healing)” value (1205Lu melanoma cells [5]) is reported as “Results were confirmed”. The “cell migration (wound healing)” value (A375 melanoma cells [6]) was “Results were confirmed”, the “cell invasion, dose dependence” value (1205Lu melanoma cells [1]; 24 h) was “decreases cell invasion in dose dependent manner” and the inhibition at 10000 µM (1205Lu melanoma cells [1]; Homo sapiens, 1205Lu, 10 mM, 24 h, read-out: inhibition of cell invasion) was 95%. For the same compound, the inhibition of invasion (1205Lu melanoma cells [1]; [12]) was “prevent downregulation of Slug and inhibition of invasion”, the inhibition of invasion (1205Lu melanoma cells [1]; in presence of dominant negative forms of AMPK) was “abolished” and the “cell invasion, dose dependence” value (A375 melanoma cells [2]) was “decreases cell invasion in dose dependent manner”. The inhibition at 10000 µM (A375 melanoma cells [2]; Homo sapiens, A-375, 10 mM, read-out: inhibition of cell invasion) was 90%, the cell invasion [7] was “significant inhibition of cell invasion” and the “cell invasion into collagen” value (WM9 melanoma cells; in presence of apoptosis inhibitor QVD) was “block invasion”. The “cell invasion into collagen” value (WM9 melanoma cells; spheroids embedded in collagen) was “significantly reduced cell invasion into collagen”, the N-cadherin expression ([8]; 24 h) was “decrease” and the SPARC expression ([8]; 24 h) was “inhibited in a dose dependent manner”. For the same compound, the Slug level ([8]; 24 h) was “decrease”, the Snail level ([8]; 24 h) was “also decrease” and the fibronectin expression ([8]; 24 h) was “decrease”. The vimentin expression ([8]; 24 h) was “not modified”, the N-cadherin expression ([8]; 24 h, listed as Metformin) was “inhibited in a dose dependent manner” and the Slug level ([8]; 24 h, listed as Metformin) was “also decrease”. The fibronectin expression ([8]; 24 h, listed as Metformin) was “inhibited in a dose dependent manner”, the Slug downregulation [8, 12] was “prevent downregulation of Slug” and the “decrease of total MMP activities” value (total MMP activity) was “approximately 30%”. For the same compound, the MMP-2 activity (MMP-2; 5 mM) was “important diminution”, the “decrease of MMP-2 activity” value (MMP-2; 10 mM) was 80% and the MMP-9 activity (MMP-9; 5 mM) was “important diminution”. The “decrease of MMP-9 activity” value (MMP-9; 10 mM) was 45%, the “metformin-stimulated phosphorylation of Acetyl-CoA carboxylase (ACC)” value (AMPK; cells infected by AdAMPK DN α1 and α2) was “abolished” and the “Slug and SPARC expression” value (AMPK; cells infected with Ad control) was “inhibited”. The “Slug and SPARC expression” value (AMPK; expression of AMPK DN constructs) was “abrogates these inhibitory effects”, the “increase in bioluminescence intensity in lungs of vehicle-treated mice compared to metformin-treated mice” value ([9]; 7 days after cell injection, intraperitoneal, 2 mg/mouse/day) was 3 fold and the “bioluminescence intensity in lungs” value ([9]; after 39 day, intraperitoneal, 2 mg/mouse/day) was “very weak”. For the same compound, the “Slug staining in sections of lung tumors” value ([9]; immunofluorescent staining, vs vehicle) was “significant decrease in Slug staining”, the “decrease in Slug and N-cadherin expressions” value [10] was “restored” and the cell death (melanomas cells) was “induced cell death of melanomas cells”. The “micro-metastases in the lungs (extravasation)” value (1205Lu melanoma cells [11]) was “much more micro-metastases in the lungs than 1205Lu cells treated by metformin”.
For `CC(C)[C@H](NC(=O)c1ccc2ccccc2n1)C(=O)N[C@@H](CC(=O)O)C(=O)COc1c(F)cccc1F` [QVD], the “cell invasion into collagen” value (WM9 melanoma cells; spheroids embedded in collagen) was “contrary to QVD alone, association of QVD with metformin block invasion”.
